Assays:
[1] = tested on: D5 mouse melanoma tumors (untreated cells); experiment: In vivo growth of subcutaneous tumors from non-lipofected cells; design: species or system C57/J(B6) mice; conditions: 100 mg/Kg/Day intraperitoneally for 4 days from Day 3
Method: (§1) The 5FUR-galactoside conjugate described in Example 16, 5-fluorouridine-5′-O-β-D-galactopyranoside (M0174) was tested to determine the reduction of tumor growth of subcutaneously implanted D5 mouse melanoma tumors that had been lipofected with a vector containing the lacZ marker gene in mice. […] C57/J(B6) mice (22-36 g each) were injected in the right flank with 50 μL HBBS containing 1×10^6D5 tumor cell that were either untreated or lipofected with a vector containing the lacZ gene. M0174 was administered intraperitoneally starting at Day 3, for 4 days, to mice that had received lipofected tumor cells in doses of either 25 or 50 mg/kg/day, and to mice that had received untreated tumor cells in doses of 100 mg/kg/day. Measurement of tumor area in mm^2 began on Day 8 and ended on Day 26. […] NO EFFECT (i.e. no significant drug release) for pro-drug on non-lipofected cells was found (even at 100 mg/Kg/Day), indicating once again a lack of biological activity for the pro-drug, M0174.

[2] = tested on: E. coli CSH36/S90C and CSH22/S90C co-culture; experiment: Co-culture bystander effect, colony growth on X-gal plates; format: cell-based; conditions: 10 μg/ml 5FUR or 16.2 μg/ml M0174, plated on X-gal
Method: E. coli strains CSH36/S90C and CSH22/S90C were grown in co-culture and tested with the 5FUR-galactoside conjugate described in Example 16, 5-fluorouridine-5′-O-β-D-galactopyranoside, (M0174) to show translocation of drug released in β-Gal expressing cells to other cells in the culture. CSH36 is a constitutive mutant for lacZ and therefore produces β-galactosidase regardless of induction conditions. CSH22 is a deletion mutant for lacZ and is therefore uninducible. Each strain individually and both strains together were innoculated into 10 mL aliquots of M9 minimal media and grown shaking at 37° C. overnight. Overnight cultures (500 μL) were transferred into 10 mL fresh M9 media and grown to logarithmic phase for 4 hours prior to beginning the experiments. 1 mL of this culture was transferred to 10 ml fresh M9 media containing 10 μg/ml 5-fluorouridine (5FUR), 16.2 μg/ml M0174, or no additions, and returned to the incubator. Growth curves were generated by removing aliquots of each culture at 30 minute intervals and reading absorbance at 420 nm. Remaining portions of these cultures were allowed to grow overnight, and final absorbance readings were taken. […] Plates were incubated at 37° C. for 48 hours, then evaluated for growth of white (indicating lacZ −, CSH22 cells) and blue (indicating lacZ+, CSH36 cells) colonies.

[3] = tested on: D5 murine melanoma cells lipofected with pCMVβ (lacZ); experiment: MTT cell proliferation assay, lacZ-lipofected tumor cells; format: cell-based
Method: (§2) For the MTT assay, cells are incubated with the MTT reagent, which is turned over by live cells to a purple MTT formazan product. Turnover is directly proportional to the number of live cells, enabling a proportional measurement of the number of cells to be achieved by measuring the production of MTT formazan. Media is removed from cells in the twelve well plate and replaced with DME containing 10 mM Hepes. 0.25 mL of a 2 mg/ml solution of MTT is then added to each well, and plates are covered and wrapped with aluminum foil and incubated at 37° C. for three hours. Plates are then emptied of the media MTT solution, and 1 mL of DMSO and 125 μL of Sorensens glycine buffer are added to each well to solubilize the MTT formazan product. Absorbence of each sample is measured against a DMSO blank at 570 nm.
(§3) Lipofection of D5 murine melanoma cells with the pCMVβ plasmid containing the lacZ gene provided a lacZ positive set of cells with transient but high levels of ? -galactosidase expression. A 60 mm plate of D5 cells, 80% confluent, was lipofected for 5 hours with 3.6 μg/ml pCMVB (a plasmid containing the lacZ gene)(CLONTECH) using 36 μL lipofectAmine reagent (Life Technologies, Gibco BRL). After lipofection, fresh media was added to the cells to dilute the lipofection reagent, and cells were grown for 2 days. A cover slip of the lipofected D5 cells was stained with X-gal and transfection efficiency was estimated at 70%. D5 and lipofected D5 cells were plated in 12 well plates at a density of 12×10^3 cells per well and incubated 6 hours. The 5FUR-galactoside conjugate described in Example 16, 5-fluorouridine-5′-O-β-D-galactopyranoside (M0174) was added to cells at various concentrations and cells were incubated 6 hours, after which the media was changed. Cells were allowed to grow another 36 hours, then the MTT assay was performed to estimate the number of living cells per well. Cell numbers were expressed as a percent of the number of cells in the control well. All assay points were performed in duplicate and averaged. […]

[4] = tested on: D5 mouse melanoma tumors lipofected with a lacZ vector; experiment: In vivo growth of subcutaneous tumors from lacZ-lipofected cells; design: species or system C57/J(B6) mice; conditions: 25 and 50 mg/Kg/Day intraperitoneally for 4 days from Day 3
Method: as §1

[5] = tested on: D5 murine melanoma cells; experiment: MTT cell proliferation assay, non-lipofected tumor cells; format: cell-based
Method: as §2, §3

[6] = tested on: E. coli strains CSH23/S90C and CSH22/S90C; experiment: Bacterial growth assay under non-inducing conditions (loss of activity upon conjugation); format: cell-based; conditions: 10 μg/ml 5FUR or 16.2 μg/ml M0174, M9 media, FIG. 1
Method: E. coli strains CSH23/S90C and CSH22/S90C were tested with 5-fluorouridine (5FUR) and the 5FUR-galactoside conjugate described in Example 16, 5-fluorouridine-5′-O-β-D-galactopyranoside, (M0174) to confirm loss of biological activity upon conjugation. CSH23 is a strain inducible for lacZ expression; CSH22 is a deletion mutant for lacZ and is therefore uninducible. Other strains with these properties are commercially available. When grown under non-inducing conditions, neither strain will produce β-galactosidase. Each strain was innoculated into 10 mL M9 minimal media and grown in non-inducing conditions, shaking at 37° C. overnight. Overnight cultures (500 μL) were transferred into […] fresh M9 media and grown to logarithmic phase for 4 hours prior to beginning the experiments. 1 mL of this culture was transferred to 10 ml fresh M9 media containing 10 μg/ml 5FUR, 16.2 μg/ml M0174, or no additions, and returned to the incubator. Growth curves were generated by removing aliquots of each culture at 30 minute intervals and reading absorbance at 420 nm. All final data was run in duplicate trials.

[7] = tested on: X. campestris XN1; experiment: Differential growth of non-transformed bacteria under PPT block; format: cell-based, Xanthomonas campestris; conditions: M9+0.2% glucose+PPT (20 μg/mL)+M0182 (63 μg/mL)
[8] = tested on: X. campestris CL355 (ampicillin resistant, plasmid pGC9114); experiment: Differential growth of amp-containing bacteria under PPT block; format: cell-based, Xanthomonas campestris; conditions: M9+0.2% glucose+PPT (20 μg/mL)+M0182 (63 μg/mL)
[9] = tested on: LFY::luc transformed Arabidopsis thaliana ecotype Columbia; experiment: Tissue selective ablation of meristem floral initiator cells; format: in vivo; conditions: 5 mM spray in 0.01% triton X-100, 2 times per day, 7-20 days
Text: To test for induction of sterility and prevention of cross-pollination of recombinant plants, Arabiposis thaliana ecotype Columbia are transformed with a plasmid construct containing an LEAFY promoter (LFY) driven firefly luciferase (luc) gene by standard leaf disk techniques (Horsch, et al., 1988). The 2.3 kb BamHI fragment spanning the LFY promoter (Blazquez, et al., 1997) is inserted in front of the luc gene in plasmid pGL3 (available from Promega Corp., Madison, Wis.) using the BglII site. Transgenic plants are generated using the vacuum-filtration method of Berthold, et al. (Berthold, et al., 1993). Regenerated kanamycin-resistant T1 plants carrying LFY::luc are grown up in a greenhouse to allow seed to set. T2 seed of strongly expressing T1 lines are grown in sterile culture on MS medium containing kanamycin at 20° C. for 6 to 10 days in 16 hours light: 8 hours dark cycles and afterward in 12 hour light: 12 hour dark cycles. Plants are treated by spray application to the upper leaves and apical shoot sections, with 5 mM D-luciferin-bromoxynil in 0.01% aqueous triton X-100, 2 times per day, beginning on day 4, for a period of 7-20 days.

[10] = tested on: E. coli CSH36 (constitutive mutant for lacZ); experiment: Bacterial growth with ONPG; format: cell-based; conditions: CSH36, no IPTG, 0.3 mg/ml ONPG
Method: (§4) E. coli strains CSH36 and W3110 available from the ATCC, Manassas, Va. were tested with orthonitrophenyl β-D-galactopyranoside (ONPG), according to the procedure of Marsh, 1994, to confirm release of compound upon induction of β-galactosidase production. W3110 is a wild-type E. coli strain inducible for lacZ expression; CSH36 is a constitutive mutant for lacZ and therefore produces β-galactosidase regardless of induction conditions. Each strain was innoculated into 10 mL M9 minimal media and grown in non-inducing conditions, shaking at 37° C. overnight. W3110 was also innoculated into 10 mL M9 media containing 0.3 mM iso-propyl thiogalactoside (IPTG) (W3110i) to induce β-galactosidase production. Overnight cultures (500 μL) were transferred into 10 mL fresh M9 media (+/−IPTG) and grown to logarithmic phase for 4 hours prior to beginning the experiments. 1 mL of this culture was transferred to 10 ml fresh M9 media (+/−IPTG) containing 0.3 mg/ml ONPG or no additions, and returned to the incubator. Growth curves were generated by removing aliquots of each culture at 30 minute intervals and reading absorbance at 420 nm. All final data was run in duplicate trials (A and B). […] ONP is also toxic to the bacteria, and therefore growth was retarded in those cultures producing β-galactosidase and turning over ONPG to ONP (see below and FIG. 2).

[11] = tested on: E. coli W3110 (inducible for lacZ); experiment: Bacterial growth with ONPG with or without IPTG induction; format: cell-based; conditions: 0.3 mg/ml ONPG
Method: as §4

[12] = tested on: D5 tumor cells lipofected with a lacZ containing vector; experiment: In vivo pulmonary tumor growth, lipofected tumor cells; design: species or system C57/J(B6) mice
Method: To test the efficacy of pro-drug delivery in vivo for initiation and mediation of a host cellular immune response to genetically modified tumor, C57/J(B6) mice (22-36 g each) are injected intravenous with 50 μL HBBS containing 1×10^6 D5 tumor cells that are either untreated, lipofected with a vector containing the lacZ gene, lipofected with a vector containing both the lacZ and the H-2K allogeneic major histocompatability complex (MHC) class I gene (Wahl, et al, 1995), or lipofected with a vector containing the H-2K gene alone. After 2 days, accumulation of the tumor cells in the lung tissue is expected. Two animals are retained as controls, and necropsy examination and tumor staining of the lipofected animals is performed at the end of the trial, to confirm pulmonary tumor growth.
The doxorubicin-galactoside pro-drug of Example 19 is administered intraperitoneally starting at Day 3, for 20 days, to mice that received lipofected tumor cells in doses of either 5, 10 or 25 mg/kg/day, and to mice that received untreated tumor cells in doses of 50 mg/kg/day. Measurement of tumor growth is determined by necropsy examination of lung tissue and staining at day 25.

O=c1[nH]c(=O)n([C@@H]2O[C@H](CO[C@@H]3O[C@H](CO)[C@H](O)[C@H](O)[C@H]3O)[C@@H](O)[C@H]2O)cc1F [Example M0174, 5-Fluorouridine-5′-O-β-D-Galactopyranoside]
tumor growth (tumor area in mm^2, Day 8 to Day 26) [1]: NO EFFECT | colony growth after overnight co-culture [2]: no growth of either cell type | activity at 0.3 µg/mL ([3]; Mus musculus, 0.3 ug/ml, 6 hours exposure, MTT after another 36 hours, read-out: D5 lipofected, % of control growth): 48% | activity at 5 µg/mL ([3]; Mus musculus, 5 ug/ml, 6 hours exposure, MTT after another 36 hours, read-out: D5 lipofected, % of control growth): 22% | effect on cell growth ([3]; lipofected D5 cells): growth inhibited | tumor growth (tumor area in mm^2, Day 8 to Day 26) [4]: slight delay in tumor growth | activity at 0.3 µg/mL ([5]; Mus musculus, 0.3 ug/ml, 6 hours exposure, MTT after another 36 hours, read-out: D5 % of control growth): 110% | activity at 5 µg/mL ([5]; Mus musculus, 5 ug/ml, 6 hours exposure, MTT after another 36 hours, read-out: D5 % of control growth): 87.9% | effect on cell growth ([5]; non-lipofected cells, even at high dosage values): unaffected | effect on growth (growth curves, absorbance at 420 nm) [6]: very little effect

Phenylacetyl-cephalosporanic acid-glutamate [Example M0182]
final growth, Abs. (600 nm) [7]: 0.101 | final growth, Abs. (600 nm) [8]: 0.471

O=c1[nH]c(=O)n([C@@H]2O[C@H](CO)[C@@H](O)[C@H]2O)cc1F [Example 5FUR, 5-fluorouridine, reference compound]
colony growth after overnight co-culture [2]: no growth of either cell type | effect on growth (growth curves, absorbance at 420 nm) [6]: significant decrease in growth

N#Cc1cc(Br)c(OCC2SC(c3nc4ccc(O)cc4s3)=N[C@H]2C(=O)O)c(Br)c1 (stereo partly drawn) [D-luciferin-bromoxynil, D-2-(6′-Hydroxybenzothiazol-2′-yl)-D2-5-(2,6-dibromo-4-cyanophenoxy)methylthiazoline-4-carboxylic acid]
floral initiation in apical shoot meristem [9]: no transition to floral initiation

O=[N+]([O-])c1ccccc1O[C@@H]1O[C@H](CO)[C@H](O)[C@H](O)[C@H]1O [ONPG, orthonitrophenyl β-D-galactopyranoside]
Doubling Time (min) [10]: *not measurable | time after start of experiments at which growth halted [10]: *growth halted approximately 2 hours after start of experiments | Doubling Time ([11]; W3110, 0.3 mM IPTG): 215 min | Doubling Time ([11]; W3110, no IPTG): 92 min

COc1cccc2c1C(=O)c1c(O)c3c(c(OC4OC(CO)C(O)C(O)C4O)c1C2=O)C[C@@](OC1OC(CO)C(O)C(O)C1O)(C(C)=O)C[C@@H]3OC1CC(N)C(OC2OC(CO)C(O)C(O)C2O)CO1 (stereo partly drawn) [Example 19]
tumor growth in lung tissue (necropsy and staining at day 25) ([12]; 5, 10 or 25 mg/kg/day intraperitoneally for 20 days from Day 3): Tumor regression | tumor burden ([12]; animals receiving both lacZ and H-2K gene): lower tumor burden
